In patent US5173500A, “Pharmaceutical compositions and methods of sulphonamides containing a tetrazolyl radical” (Boehringer Mannheim GmbH, priority 1988, dated 1992):

Key:
[1] = system: thrombocyte aggregation induced by thromboxane mimetic U 46619 (TX antagonistic effect); experiment: Thrombocyte aggregation induced by U 46619 in platelet-rich plasma (method of Born and Cross); type: cell-based; settings: Homo sapiens, 5 min; platelet-rich plasma of healthy blood donors; aggregation induced by U 46619, followed over 5 minutes
Description: Thrombocyte aggregation was investigated by the method of Born to Cross (J. Physiol. 168, 178 (1963)) in platelet-rich plasma of healthy blood donors. To inhibit clotting, the blood was mixed with 3.2% citrate in a ration by volume 1:9.
To induce thrombocyte aggregation, U 46619 (Upjohn & Co., Kalamazoo, Mich., USA), which is a stable analog of the prostagladin endoperoxide PHG2, was used. U 46619 has been characterized as a selective thromboxane mimetic (Coleman et al., Brit. J. Pharmacol. 68, 127 P., 1980).
The aggregation test was carried out in a 4-channel aggregometer (Profiler®, of the Bio/Data Co., USA). The course of the aggregation was followed over a period of 5 minutes. At the end of the test, the degree of aggregation attained was printed out. These values, which were obtained in the presence of different concentrations of the substance being tested, were used for the determination of the IC50 value for the TX antagonistic effect. The effectiveness varies inversely with the IC50 value.

[2] = system: Male NMRI mice challenged with lethal dose of U 46619; experiment: Survival of mice after lethal i.v. injection of thromboxane mimetic U 46619; type: in vivo; settings: Mus musculus, iv, lethal dose U 46619 (800-1000 ug/kg) i.v. after 4 hours; for responders at 1 mg/kg: 1 mg/kg by stomach tube in 1% methylcellulose, read-out: Survival Rate of Mouse 1 mg/kg, 4 h in %; for responders at 25 mg/kg: 25 mg/kg by stomach tube in 1% methylcellulose, read-out: Survival Rate of Mouse 25 mg/kg, 4 h in %
Experimental: Male NMRI mice, with a body weight of 25 g, were used. The test substance was suspended in 1% methylcellulose and administered to the experimental animals with the aid of a stomach tube. The provacation test consisted of injecting a lethal dose (800-1000/ug/kg) of the thromboxane mimetic (U 46619, Upjohn Co.) rapidly into the tail vein. The duration of the specific antagonistic effect was tested by pretreating the animals with 25 or 1 mg/kg of the different test substances and injecting U 46619 after 4 hours. The survival rate indicates how many of the animals which were used survived the injection of the thromboxane mimetic.

Row | SMILES | IC50 [1] [µM] | responders at 1 mg/kg [2] [%] | responders at 25 mg/kg [2] [%]
1 | O=C(CCC(=O)c1ccc(CCNS(=O)(=O)c2ccc(Br)cc2)cc1)Nc1nnn[nH]1 [6/III, 4-Oxo-4-{4-[2-(4-bromobenzenesulphonamido)-ethyl]-phenyl}-butyric acid (1H-tetrazol-5-yl)-amide] | 55 | 100 | 100
2 | O=C(COc1cccc(CCNS(=O)(=O)c2ccc(Cl)cc2)c1)Nc1nnn[nH]1 [Example 2, 3-[2-(4-Chlorobenzenesulphonamido)-ethyl]-phenoxyacetic acid (1H-tetrazol-5-yl)-amide] | 6 | 100 | 100
3 | O=S(=O)(NCCc1ccc(Nc2nnn[nH]2)cc1)c1ccc(Cl)cc1 [Example 3, 4-[2-(4-Chlorobenzenesulphonamido)-ethyl]-N-(1H-tetrazole-5-yl)-aniline] | 0.2 | 20 | 100
4 | O=C(COc1ccc(CCNS(=O)(=O)c2ccc(Cl)cc2)cc1)Nc1nnn[nH]1 [Example 4, 4-[2-(4-Chlorobenzenesulphonamido)-ethyl]-phenoxyacetic acid (1H-tetrazol-5-yl)-amide] | 9 | 80 | 100
5 | O=C(Cc1ccc(CCNS(=O)(=O)c2ccc(Cl)cc2)cc1)Nc1nnn[nH]1 [Example 5, 4-[2-(4-Chlorobenzenesulphonamido)-ethyl]-phenylacetic acid (1H-tetrazol-5-yl)-amide] | 0.9 | 80 | 100
6 | O=S(=O)(NCCc1ccc(Cc2nnn[nH]2)cc1)c1ccc(Cl)cc1 [Example 8, 5-{4-[2-(4-Chlorobenzenesulphonamido)-ethyl]-phenyl-methyl}-1H-tetrazole] | 0.07 | 100 | 100
7 | Cc1ccc(S(=O)(=O)NCCc2cccc(OCC(=O)Nc3nnn[nH]3)c2)cc1 [Example 15, 3-[2-(4-Methylbenzenesulphonamido)-ethyl]-phenoxyacetic acid (1H-tetrazol-5-yl)-amide] | 24 | 100 | 100
8 | O=C(COc1cccc(CCNS(=O)(=O)c2ccccc2Cl)c1)Nc1nnn[nH]1 [Example 16, 3-[2-(2-Chlorobenzenesulphonamido)-ethyl]-phenoxyacetic acid (1H-tetrazol-5-yl)-amide] | 17 | 40 | 100
